# From patent publication US20100004333A1, “COMPOSITIONS AND METHODS FOR TREATING CARDIOVASCULAR DISORDERS” (priority 2004, published 2010)
# Key:
# [1] = test system: New Zealand White rabbits; experiment: Rabbit aortic balloon-injury model: intimal hyperplasia; assay type: in vivo; details: 9 weeks, FIG. 21; for Protection against balloon injury-induced intimal hyperplasia: 0.02% wt/wt in chow, ABI at end of week three
# Description: Rabbit aortic balloon-injury model. Four groups of male New Zealand White rabbits (1.8-2.2 kg, Merunga Farm, Coffs Harbour, Australia), matched for body weight and baseline plasma cholesterol, were fed 100 g per day of normal chow±1% probucol, 0.02% DTBP, or 0.02% BP (wt/wt) for up to nine weeks. Aortic balloon-injury (ABI) was carried out at the end of week three, resulting in complete endothelial denudation. Harvesting of aortas was done after a further 6 weeks (n=6 per group). Aortic lesion assessment was carried out at the 3rd pair of lumber arteries in NZW rabbits as described in Circulation 2003, 107:2031-2036. Statistics. Data are expressed as mean±SEM. One-way ANOVA and the student-Newman-Keul's test were used to evaluate differences between groups, with P<0.05 considered significant.
# Materials and methods were as described in Examples 6 and 7, with the following addition. DTBP-s and STBP were synthesized as described in Example 10. A total of 48 New Zealand White rabbits (1.8-2.2 kg) were used for this example. Rabbits were fed normal chow (100 g/day) without (Ctrl, n=12) or with 0.02% DTBP (wt/wt, n=6), 0.02% STBP (wt/wt, n=7), 0.02% DTBP-s (wt/wt, n=11) or 0.1% DTBP-s (wt/wt, n=7) for 9 weeks. Aortic balloon-injury was carried out at the end of week three.
# Heme oxygenase-1 mRNA = experiment: HO-1 mRNA by real time RT-PCR in cultured rabbit aortic smooth muscle cells; assay type: cell-based; details: α-tocopherol 50 μM, 24 hours; FIG. 20A
# Description: (§1) Materials and methods were principally as described in Examples 6 and 7. Vitamin E (α-tocopherol for cellular studies, α-tocopheryl acetate for in vivo studies) was obtained from Sigma (St. Louis, Mo.). Heme oxygenase-1 mRNA was assessed by real time RT-PCR in rabbit aortic smooth muscle cells cultured for 24 hours in the presence of vehicle (control), probucol (50 μM) or α-tocopherol (50 μM) as described in (Circulation 2004; 110:1855-1860). Re-endothelialization was assessed by Evans blue staining (Circulation 2003; 107:2031-2036) 3 weeks after injury. Intima-to-media ratio of vessels from control rabbits and animals treated with probucol or α-tocopheryl acetate (n=6 per group) was also determined 3 weeks after aortic balloon injury, using 5 serial sections per aortic segment, 100 μm apart.
# rabbits = experiment: Rabbit aortic balloon injury, 3 weeks: re-endothelialization (Evans blue) and intima-to-media ratio, vitamin E; assay type: in vivo; details: α-tocopheryl acetate
# Description: as §1
Structure (SMILES),Protection against balloon injury-induced intimal hyperplasia [1],"Protection against intimal hyperplasia: 0.02% DTBP-s compared with 0.1% DTBP-s ([1]; 0.1% wt/wt DTBP-s, P<0.05 versus 0.02% DTBP-s)",Induction of HO-1 (mRNA) in vascular smooth muscle cells (Heme oxygenase-1 mRNA),"Intimal hyperplasia (intima-to-media ratio) (rabbits; 3 weeks after aortic balloon injury, FIG. 20C)","Re-endothelialization (Evans blue) (rabbits; 3 weeks after injury, FIG. 20B)"
"CC(C)(C)c1cc(SSc2cc(C(C)(C)C)c(OC(=O)CCC(=O)O)c(C(C)(C)C)c2)cc(C(C)(C)C)c1O [DTBP-s, 4-(2,6-di-t-butyl-4-((3,5-di-t-butyl-4-hydroxyphenyl)disulfanyl)phenoxy)-4-oxobutanoic acid]","significant protection, albeit less effectively","less effectively as that seen with STBP (0.02%, to wt/wt) and DTBP-s (0.1%, wt/wt)",,,
"CC(C)(C)c1cc(S[Se]c2cc(C(C)(C)C)c(O)c(C(C)(C)C)c2)cc(C(C)(C)C)c1O [STBP, 2,6-di-t-butyl-4-(3,5-di-t-butyl-4-hydroxyphenylselanylthio)phenol]",protected to a comparable extent,,,,
"Cc1c(C)c2c(c(C)c1O)CC[C@@](C)(CCC[C@H](C)CCC[C@H](C)CCCC(C)C)O2 [vitamin E, α-tocopherol]",,,failed to induce HO-1,failed to inhibit intimal hyperplasia,did not promote re-endothelialization
